Measured values from PubChem BioAssay AID1963975 (Molecular Pharmacology Branch, DTP, NCI, 2024).

System: 624824-186-R-J2-PDC multicell spheroids, viability
Test: Anticancer human tumor 624824-186-R-J2-PDC patient-derived colon adenocarcinoma cell line growth inhibition [PI3K]
Details: for IC50: curve of first compound; for viability, T/C: stronger effect = lower value; active means viability on the fitted dose curve at most 10% of control; inactive means the rest
In short: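 Viability of mixed-cell spheroids was determined after exposure to pairwise combinations, one partner being inavolisib, alpelisib, duvelisib or copanlisib. Highest tested concentration matched clinical Cmax where known and 10 microM where not, descending in half-log steps.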

[1] = second compound 0.00316 µM, first compound 0.0316 µM
[2] = second compound 0.00316 µM, first compound 0.1 µM
[3] = second compound 0.00316 µM, first compound 0.316 µM
[4] = second compound 0.00316 µM, first compound 1 µM
[5] = second compound 0.00316 µM, first compound 3.16 µM
[6] = second compound 0.00316 µM, first compound 10 µM
[7] = second compound 0.01 µM, first compound 0.0316 µM
[8] = second compound 0.01 µM, first compound 0.1 µM
[9] = second compound 0.01 µM, first compound 0.316 µM
[10] = second compound 0.01 µM, first compound 1 µM
[11] = second compound 0.01 µM, first compound 3.16 µM
[12] = second compound 0.01 µM, first compound 10 µM
[13] = second compound 0.0316 µM, first compound 0.0316 µM
[14] = second compound 0.0316 µM, first compound 0.1 µM
[15] = second compound 0.0316 µM, first compound 0.316 µM
[16] = second compound 0.0316 µM, first compound 1 µM
[17] = second compound 0.0316 µM, first compound 3.16 µM
[18] = second compound 0.0316 µM, first compound 10 µM
[19] = second compound 0.1 µM, first compound 0.0316 µM
[20] = second compound 0.1 µM, first compound 0.1 µM
[21] = second compound 0.1 µM, first compound 0.316 µM
[22] = second compound 0.1 µM, first compound 1 µM
[23] = second compound 0.1 µM, first compound 3.16 µM
[24] = second compound 0.1 µM, first compound 10 µM
[25] = second compound 0.316 µM, first compound 0.0316 µM
[26] = second compound 0.316 µM, first compound 0.1 µM
[27] = second compound 0.316 µM, first compound 0.316 µM
[28] = second compound 0.316 µM, first compound 1 µM
[29] = second compound 0.316 µM, first compound 3.16 µM
[30] = second compound 0.316 µM, first compound 10 µM
[31] = second compound 1 µM, first compound 0.0316 µM
[32] = second compound 1 µM, first compound 0.1 µM
[33] = second compound 1 µM, first compound 0.316 µM
[34] = second compound 1 µM, first compound 1 µM
[35] = second compound 1 µM, first compound 3.16 µM
[36] = second compound 1 µM, first compound 10 µM
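Further: spheroids exposed to agents for 7 days before viability read.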
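Wherever viability, T/C is given: 100% = DMSO vehicle treated spheroids.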

C=CC(=O)N1CCN(c2nc(=O)n(-c3c(C)ccnc3C(C)C)c3nc(-c4c(O)cccc4F)c(F)cc23)C(C)C1 (stereo not given) + COc1c(OCCCN2CCOCC2)ccc2c3n(c(=NC(=O)c4cnc(N)nc4)nc12)CCN3
> 10 µM: IC50 (second compound 0.00316 µM) | IC50 (second compound 0.01 µM) | IC50 (second compound 0.0316 µM) | IC50 (second compound 0.1 µM) | IC50 (second compound 0.316 µM) | IC50 (second compound 1 µM)
inactive: viability, T/C [1] 96.5% | viability, T/C [2] 109% | viability, T/C [3] 95.6% | viability, T/C [4] 77.9% | viability, T/C [5] 88.7% | viability, T/C [6] 80.8% | viability, T/C [7] 102% | viability, T/C [8] 98.4% | viability, T/C [9] 101% | viability, T/C [10] 75.3% | viability, T/C [11] 93% | viability, T/C [12] 88.4% | viability, T/C [13] 88.4% | viability, T/C [14] 86.5% | viability, T/C [15] 97.3% | viability, T/C [16] 75.1% | viability, T/C [17] 89.5% | viability, T/C [18] 81.7% | viability, T/C [19] 80.4% | viability, T/C [20] 61.1% | viability, T/C [21] 80.1% | viability, T/C [22] 67.9% | viability, T/C [23] 69% | viability, T/C [24] 69% | viability, T/C [25] 62.6% | viability, T/C [26] 59.3% | viability, T/C [27] 59.5% | viability, T/C [28] 61.6% | viability, T/C [29] 69.8% | viability, T/C [30] 61% | viability, T/C [31] 59.1% | viability, T/C [32] 53% | viability, T/C [33] 65.5% | viability, T/C [34] 58.1% | viability, T/C [35] 64.5% | viability, T/C [36] 60.5%

CC(C)NCC(C(=O)N1CCN(c2ncnc3c2C(C)CC3O)CC1)c1ccc(Cl)cc1 (stereo not given) + COc1c(OCCCN2CCOCC2)ccc2c3n(c(=NC(=O)c4cnc(N)nc4)nc12)CCN3
inactive: viability, T/C [1] 117% | viability, T/C [2] 85% | viability, T/C [3] 81.3% | viability, T/C [4] 89.2% | viability, T/C [5] 78.7% | viability, T/C [6] 75.2% | viability, T/C [7] 97.2% | viability, T/C [8] 96.4% | viability, T/C [9] 85.7% | viability, T/C [10] 77.4% | viability, T/C [11] 87.4% | viability, T/C [12] 79.8% | viability, T/C [13] 91.6% | viability, T/C [14] 84.5% | viability, T/C [15] 73.6% | viability, T/C [16] 89.7% | viability, T/C [17] 70.5% | viability, T/C [18] 78.3% | viability, T/C [19] 76% | viability, T/C [20] 75.5% | viability, T/C [21] 68.7% | viability, T/C [22] 63.2% | viability, T/C [23] 77.4% | viability, T/C [24] 64.7% | viability, T/C [25] 60.1% | viability, T/C [26] 66% | viability, T/C [27] 62.1% | viability, T/C [28] 67.3% | viability, T/C [29] 62.3% | viability, T/C [30] 66.3% | viability, T/C [31] 58.6% | viability, T/C [32] 54.3% | viability, T/C [33] 62.4% | viability, T/C [34] 61.7% | viability, T/C [35] 65% | viability, T/C [36] 56.5%
> 10 µM: IC50 (second compound 0.00316 µM) | IC50 (second compound 0.01 µM) | IC50 (second compound 0.0316 µM) | IC50 (second compound 0.1 µM) | IC50 (second compound 0.316 µM) | IC50 (second compound 1 µM)

CCN1CCN(Cc2ccc(Nc3ncc(F)c(-c4cc(F)c5nc(C)n(C(C)C)c5c4)n3)nc2)CC1 + COc1c(OCCCN2CCOCC2)ccc2c3n(c(=NC(=O)c4cnc(N)nc4)nc12)CCN3
> 1 µM: IC50 (second compound 0.00316 µM) | IC50 (second compound 0.01 µM) | IC50 (second compound 0.0316 µM) | IC50 (second compound 0.1 µM) | IC50 (second compound 0.316 µM) | IC50 (second compound 1 µM)
inactive: viability, T/C (second compound 0.00316 µM, first compound 0.00316 µM) 94.1% | viability, T/C (second compound 0.00316 µM, first compound 0.01 µM) 90.4% | viability, T/C [1] 107% | viability, T/C [2] 76.5% | viability, T/C [3] 89.4% | viability, T/C [4] 106% | viability, T/C (second compound 0.01 µM, first compound 0.00316 µM) 120% | viability, T/C (second compound 0.01 µM, first compound 0.01 µM) 73.7% | viability, T/C [7] 78.7% | viability, T/C [8] 75.9% | viability, T/C [9] 81.7% | viability, T/C [10] 94.6% | viability, T/C (second compound 0.0316 µM, first compound 0.00316 µM) 91.8% | viability, T/C (second compound 0.0316 µM, first compound 0.01 µM) 99.1% | viability, T/C [13] 75.3% | viability, T/C [14] 66.9% | viability, T/C [15] 80.5% | viability, T/C [16] 89.9% | viability, T/C (second compound 0.1 µM, first compound 0.00316 µM) 81.1% | viability, T/C (second compound 0.1 µM, first compound 0.01 µM) 63.4% | viability, T/C [19] 64.6% | viability, T/C [20] 54.2% | viability, T/C [21] 68.2% | viability, T/C [22] 83.8% | viability, T/C (second compound 0.316 µM, first compound 0.00316 µM) 69.1% | viability, T/C (second compound 0.316 µM, first compound 0.01 µM) 57.6% | viability, T/C [25] 58.9% | viability, T/C [26] 58.9% | viability, T/C [27] 69.4% | viability, T/C [28] 91.8% | viability, T/C (second compound 1 µM, first compound 0.00316 µM) 64.2% | viability, T/C (second compound 1 µM, first compound 0.01 µM) 56.9% | viability, T/C [31] 61.4% | viability, T/C [32] 62.9% | viability, T/C [33] 72.9% | viability, T/C [34] 88%

Cn1ncc(Cl)c1-c1cc(C(=O)NC(CN)Cc2cccc(F)c2)sc1Cl (stereo not given) + COc1c(OCCCN2CCOCC2)ccc2c3n(c(=NC(=O)c4cnc(N)nc4)nc12)CCN3
8.26 µM: IC50 (second compound 0.01 µM)
> 10 µM: IC50 (second compound 0.00316 µM)
4.55 µM: IC50 (second compound 1 µM)
5.31 µM: IC50 (second compound 0.316 µM)
inactive: viability, T/C [1] 86.6% | viability, T/C [2] 72% | viability, T/C [3] 90.8% | viability, T/C [4] 87.7% | viability, T/C [5] 72.7% | viability, T/C [6] 50% | viability, T/C [7] 118% | viability, T/C [8] 81.2% | viability, T/C [9] 93.7% | viability, T/C [10] 81.6% | viability, T/C [11] 62.6% | viability, T/C [12] 45.5% | viability, T/C [13] 86.1% | viability, T/C [14] 85.5% | viability, T/C [15] 89.2% | viability, T/C [16] 74% | viability, T/C [17] 71% | viability, T/C [18] 45.4% | viability, T/C [19] 78.2% | viability, T/C [20] 81.3% | viability, T/C [21] 68.3% | viability, T/C [22] 69.2% | viability, T/C [23] 64.7% | viability, T/C [24] 44.9% | viability, T/C [25] 80.9% | viability, T/C [26] 66.6% | viability, T/C [27] 64.7% | viability, T/C [28] 66.9% | viability, T/C [29] 63.4% | viability, T/C [30] 36.3% | viability, T/C [31] 68.5% | viability, T/C [32] 58.3% | viability, T/C [33] 61.6% | viability, T/C [34] 57.9% | viability, T/C [35] 57.8% | viability, T/C [36] 35.8%
8.19 µM: IC50 (second compound 0.0316 µM)
7.47 µM: IC50 (second compound 0.1 µM)

Cn1nccc1Nc1nccc(-c2ccn(C(CO)c3ccc(Cl)c(F)c3)c(=O)c2)n1 (stereo not given) + COc1c(OCCCN2CCOCC2)ccc2c3n(c(=NC(=O)c4cnc(N)nc4)nc12)CCN3
0.37 µM: IC50 (second compound 0.0316 µM)
active: viability, T/C [36] 7.14%
0.138 µM: IC50 (second compound 0.1 µM)
> 10 µM: IC50 (second compound 0.00316 µM) | IC50 (second compound 0.01 µM)
inactive: viability, T/C [1] 102% | viability, T/C [2] 86.5% | viability, T/C [3] 78.2% | viability, T/C [4] 75.5% | viability, T/C [5] 82.7% | viability, T/C [6] 81.2% | viability, T/C [7] 102% | viability, T/C [8] 71.9% | viability, T/C [9] 74.2% | viability, T/C [10] 67% | viability, T/C [11] 66.7% | viability, T/C [12] 50.5% | viability, T/C [13] 85.7% | viability, T/C [14] 59% | viability, T/C [15] 58.9% | viability, T/C [16] 37.1% | viability, T/C [17] 33.6% | viability, T/C [18] 26.5% | viability, T/C [19] 69.5% | viability, T/C [20] 53.3% | viability, T/C [21] 39.1% | viability, T/C [22] 30.9% | viability, T/C [23] 26.6% | viability, T/C [24] 15.6% | viability, T/C [25] 55.3% | viability, T/C [26] 42.7% | viability, T/C [27] 36.3% | viability, T/C [28] 22.8% | viability, T/C [29] 15.1% | viability, T/C [30] 11.8% | viability, T/C [31] 51.5% | viability, T/C [32] 42.9% | viability, T/C [33] 36.8% | viability, T/C [34] 26.5% | viability, T/C [35] 14.9%
0.0374 µM: IC50 (second compound 1 µM)
0.0535 µM: IC50 (second compound 0.316 µM)
